According to patent EP2505659A1, “Methods for the identification of dioxygenase interacting molecules and for the purification of dioxygenase proteins” (CELLZOME AG, priority 2011, dated 2012):
Counter-ions that a name gives are not always drawn. Like-named read-outs stand apart in the source and are kept apart here.

Key:
Test in all cases: Bead competition binding assay, immobilized compound A, K-562, HL-60 and Jurkat nuclear lysates
EGLN2 = target: T1, EGLN2 (Homo sapiens, UniProt Q96KS0); settings: 100 µM free compound A, read-out: Fold change versus DMSO control
T1 construct: capturing and identification of dioxygenases from nuclear lysates of three different cell lines; endogenous in cells; host or cells: K-562, HL-60 and Jurkat nuclear lysates
T1 sequence (Q96KS0 whole entry): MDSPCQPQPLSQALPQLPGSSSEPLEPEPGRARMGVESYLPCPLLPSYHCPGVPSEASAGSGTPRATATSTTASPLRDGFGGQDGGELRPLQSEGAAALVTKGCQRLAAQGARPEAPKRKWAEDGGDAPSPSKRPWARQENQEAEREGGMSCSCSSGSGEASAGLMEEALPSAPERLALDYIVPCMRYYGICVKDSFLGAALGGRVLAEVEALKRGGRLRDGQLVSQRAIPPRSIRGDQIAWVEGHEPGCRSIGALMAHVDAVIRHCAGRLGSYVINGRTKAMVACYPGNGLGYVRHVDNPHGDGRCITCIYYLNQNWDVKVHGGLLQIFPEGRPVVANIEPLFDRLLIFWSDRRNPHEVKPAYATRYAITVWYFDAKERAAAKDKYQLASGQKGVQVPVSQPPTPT
Description: (§1) K562 cells were also purchased from DSMZ (Braunschweig, Germany).
(§2) Table 5: Peptide elution off the LC system
(§3) Seventeen different dioxygenases were identified.

P4HA2 = target: T2, P4HA2 (Homo sapiens, UniProt O15460); settings: 100 µM free compound A, read-out: Fold change versus DMSO control
T2 construct: capturing and identification of dioxygenases from nuclear lysates of three different cell lines; endogenous in cells; host or cells: K-562, HL-60 and Jurkat nuclear lysates
T2 sequence (O15460 22-535): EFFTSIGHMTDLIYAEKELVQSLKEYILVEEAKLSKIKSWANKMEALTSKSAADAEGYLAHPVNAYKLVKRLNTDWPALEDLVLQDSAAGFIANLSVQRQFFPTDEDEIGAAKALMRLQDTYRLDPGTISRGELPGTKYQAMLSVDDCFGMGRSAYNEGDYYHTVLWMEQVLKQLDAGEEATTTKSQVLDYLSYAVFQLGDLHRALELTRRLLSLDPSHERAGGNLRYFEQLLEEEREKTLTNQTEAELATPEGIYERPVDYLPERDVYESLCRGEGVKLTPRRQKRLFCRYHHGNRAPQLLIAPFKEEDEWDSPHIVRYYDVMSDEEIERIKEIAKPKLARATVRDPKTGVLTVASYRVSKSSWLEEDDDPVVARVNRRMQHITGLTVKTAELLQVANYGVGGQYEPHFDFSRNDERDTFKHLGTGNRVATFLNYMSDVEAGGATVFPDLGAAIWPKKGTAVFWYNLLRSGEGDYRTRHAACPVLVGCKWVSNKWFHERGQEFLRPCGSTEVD
T2 sequence (P07237 18-508 partner): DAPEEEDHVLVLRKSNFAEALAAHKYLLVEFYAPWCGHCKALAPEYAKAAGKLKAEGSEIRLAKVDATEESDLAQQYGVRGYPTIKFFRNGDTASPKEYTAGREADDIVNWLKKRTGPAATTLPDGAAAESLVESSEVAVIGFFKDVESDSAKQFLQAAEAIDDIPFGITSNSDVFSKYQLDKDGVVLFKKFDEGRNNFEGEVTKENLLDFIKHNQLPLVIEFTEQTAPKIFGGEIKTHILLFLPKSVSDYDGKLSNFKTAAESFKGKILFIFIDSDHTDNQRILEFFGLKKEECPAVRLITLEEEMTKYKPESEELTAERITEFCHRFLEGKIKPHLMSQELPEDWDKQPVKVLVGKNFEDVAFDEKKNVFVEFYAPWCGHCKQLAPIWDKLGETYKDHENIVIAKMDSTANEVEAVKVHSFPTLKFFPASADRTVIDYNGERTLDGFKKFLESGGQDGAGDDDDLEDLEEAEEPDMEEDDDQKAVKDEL
Description: as §1, §2, §3

TMLHE = target: T3, TMLHE (Homo sapiens, UniProt Q9NVH6); settings: 100 µM free compound A, read-out: Fold change versus DMSO control
T3 construct: capturing and identification of dioxygenases from nuclear lysates of three different cell lines; endogenous in cells; host or cells: K-562, HL-60 and Jurkat nuclear lysates
T3 sequence (Q9NVH6 16-421): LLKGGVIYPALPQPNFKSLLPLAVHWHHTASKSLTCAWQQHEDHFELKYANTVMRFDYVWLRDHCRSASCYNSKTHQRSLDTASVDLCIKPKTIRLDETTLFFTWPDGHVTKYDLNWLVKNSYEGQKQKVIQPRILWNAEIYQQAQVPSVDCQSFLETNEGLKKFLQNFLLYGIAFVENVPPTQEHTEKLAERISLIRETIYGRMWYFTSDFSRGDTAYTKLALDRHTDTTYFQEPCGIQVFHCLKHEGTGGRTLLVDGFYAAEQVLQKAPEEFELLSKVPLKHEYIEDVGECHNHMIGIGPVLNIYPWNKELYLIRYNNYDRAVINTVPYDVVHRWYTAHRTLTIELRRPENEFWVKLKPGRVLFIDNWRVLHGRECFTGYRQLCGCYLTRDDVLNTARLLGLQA
Description: as §1, §2, §3

ALKBH7 = target: T4, ALKBH7 (Homo sapiens, UniProt Q9BT30); settings: 100 µM free compound A, read-out: Fold change versus DMSO control
T4 construct: capturing and identification of dioxygenases from nuclear lysates of three different cell lines; endogenous in cells; host or cells: K-562, HL-60 and Jurkat nuclear lysates
T4 sequence (Q9BT30 21-221): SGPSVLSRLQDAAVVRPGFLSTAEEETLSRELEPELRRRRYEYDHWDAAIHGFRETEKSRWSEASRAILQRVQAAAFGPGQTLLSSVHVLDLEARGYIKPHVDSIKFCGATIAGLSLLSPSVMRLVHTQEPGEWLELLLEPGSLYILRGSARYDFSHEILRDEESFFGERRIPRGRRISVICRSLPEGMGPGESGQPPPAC
Description: as §1, §2, §3

C17ORF101 = target: T5, C17ORF101 (Homo sapiens, UniProt Q6PK18); settings: read-out: Fold change versus DMSO control, C17ORF101; 100 µM free compound A; HL-60 nuclear lysate
T5 construct: capturing and identification of dioxygenases from nuclear protein extracts; endogenous in cells
T5 sequence (Q6PK18 1-331 isoform Q6PK18-2): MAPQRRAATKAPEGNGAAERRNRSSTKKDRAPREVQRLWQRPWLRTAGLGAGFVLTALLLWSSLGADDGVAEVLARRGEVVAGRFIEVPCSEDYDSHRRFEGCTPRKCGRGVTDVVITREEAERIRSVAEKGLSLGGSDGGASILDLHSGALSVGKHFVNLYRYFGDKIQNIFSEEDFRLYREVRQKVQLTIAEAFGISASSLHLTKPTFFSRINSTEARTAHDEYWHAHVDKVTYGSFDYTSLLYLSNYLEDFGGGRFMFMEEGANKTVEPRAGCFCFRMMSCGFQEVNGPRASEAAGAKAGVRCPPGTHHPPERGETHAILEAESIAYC
Description: (§4) The proteins bound to the immobilized compound were eluted with detergent-containing buffer and separated on a SDS-polyacryamide gel. […] Table 4: Compound treatment and TMT-labeling of cell samples
(§5) Jurkat cells (ATCC number TIB-152) were either obtained from an external supplier (CIL SA, Mons, Belgium) or grown in one litre Spinner flasks (Integra Biosciences, #182101) in suspension in RPMI 1640 medium (Invitrogen, #21875-034) supplemented with 10% Fetal Bovine Serum (Invitrogen, #10270-106) at a density between 0.2 x 10^6 and 1.0 x 10^6 cells/ml. Cells were harvested by centrifugation, washed once with 1 x PBS buffer (Invitrogen, #14190-094) and cell pellets were frozen in liquid nitrogen and subsequently stored at -80°C.
(§6) Source of HL-60 cells: HL-60 cell line (DSMZ, Braunschweig, Germany; DSMZ number ACC3). K562 cells were also purchased from DSMZ (Braunschweig, Germany).
(§7) Extracts of nuclei were prepared according to the Dignam protocol (Dignam et al., 1983. Nucleic Acids Res. 11 (5):1475-89).
(§8) The TMT reagents are a set of multiplexed, amine-specific, stable isotope reagents that can label peptides on amino groups in up to six different biological samples enabling simultaneous identification and quantitation of peptides. The TMT reagents were used according to instructions provided by the manufacturer. The samples were resuspended in 10 µl 50 mM TEAB solution, pH 8.5 and 10 µl acetonitril were added. The TMT reagent was dissolved in acetonitrile to a final concentration of 24 mM and 10 µl of reagent solution were added to the sample. The labeling reaction was performed at room temperature for one hour on a horizontal shaker and stopped by adding 5 µl of 100 mM TEAB and 100 mM glycine in water. The labeled samples were then combined, dried in a vacuum centrifuge and resuspended in 60% 200mM TEAB / 40% acetonitril.
as §2
(§9) Search criteria varied depending on which mass spectrometer was used for the analysis.

P4HA1 = target: T6, P4HA1 (Homo sapiens, UniProt P13674); settings: read-out: Fold change versus DMSO control, P4HA1, 100 µM free compound A
T6 construct: endogenous in cells
T6 sequence (P13674 18-534): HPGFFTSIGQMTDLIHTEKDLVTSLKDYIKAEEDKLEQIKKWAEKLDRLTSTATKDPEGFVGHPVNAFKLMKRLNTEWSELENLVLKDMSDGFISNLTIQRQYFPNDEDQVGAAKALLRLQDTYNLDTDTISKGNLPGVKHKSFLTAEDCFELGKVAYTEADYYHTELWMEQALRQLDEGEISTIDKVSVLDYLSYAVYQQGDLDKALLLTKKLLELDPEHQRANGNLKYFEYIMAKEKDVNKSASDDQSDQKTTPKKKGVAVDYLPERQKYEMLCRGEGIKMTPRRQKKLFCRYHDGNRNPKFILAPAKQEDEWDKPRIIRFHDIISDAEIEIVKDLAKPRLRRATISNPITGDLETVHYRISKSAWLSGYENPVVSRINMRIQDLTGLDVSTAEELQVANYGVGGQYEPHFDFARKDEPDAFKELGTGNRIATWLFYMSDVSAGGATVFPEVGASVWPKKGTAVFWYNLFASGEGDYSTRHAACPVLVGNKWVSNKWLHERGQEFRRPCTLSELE
T6 sequence (P07237 18-508 partner): as the sequence (P07237 18-508 partner) above
Description: as §4, §5, §6, §7, §8, §2, §9

**Q.** Which remaining binding at 100 µM (EGLN2; HL-60 nuclear lysate) does the source give for `O=C(O)CNC(=O)C1C(=O)OC2(CCNCC2)OC1=O` [compound A, 2-(2,4-dioxo-1,5-dioxa-9-azaspiro[5.5]undecane-3-carboxamido)acetic acid hydrochloride] here?
**A.** 124%

**Q.** What about the remaining binding at 100 µM (EGLN2; Jurkat nuclear lysate) of the same compound?
**A.** 123%

**Q.** What about the remaining binding at 100 µM (EGLN2; K-562 nuclear lysate) of the same compound?
**A.** 75%

**Q.** And the remaining binding at 100 µM (P4HA2; HL-60 nuclear lysate)?
**A.** 279%

**Q.** And the remaining binding at 100 µM (P4HA2; Jurkat nuclear lysate)?
**A.** 136%

**Q.** And the remaining binding at 100 µM (P4HA2; K-562 nuclear lysate)?
**A.** 28%

**Q.** And the remaining binding at 100 µM (TMLHE; HL-60 nuclear lysate)?
**A.** 104%

**Q.** And the remaining binding at 100 µM (TMLHE; Jurkat nuclear lysate)?
**A.** 49%

**Q.** And the remaining binding at 100 µM (TMLHE; K-562 nuclear lysate)?
**A.** 50%

**Q.** What about the remaining binding at 100 µM (ALKBH7; HL-60 nuclear lysate) of the same compound?
**A.** 82%

**Q.** And the remaining binding at 100 µM (ALKBH7; Jurkat nuclear lysate)?
**A.** 55%

**Q.** What about the remaining binding at 100 µM (ALKBH7; K-562 nuclear lysate) of the same compound?
**A.** 54%

**Q.** What about the remaining binding at 100 µM (C17ORF101) of the same compound?
**A.** 67%

**Q.** And the remaining binding at 100 µM (P4HA1; HL-60 nuclear lysate)?
**A.** 25%

**Q.** What about the remaining binding at 100 µM (P4HA1; K-562 nuclear lysate) of the same compound?
**A.** 31%
